{"source": "patent US20100184946A1", "about": "“Preparation of Fine Particles” (priority 2007, published 2010)", "experiment": "Particle form by X-ray powder diffraction (XRPD)", "type": "physicochemical", "conditions": "starting material before the process; product after freeze drying", "procedure": "The physical form of the paclitaxel particles was measured using X-ray powder diffraction method (“XRPD”) before the process (i.e. the starting material) and again after the product of the process had been freeze dried."}
{"smiles": "CC(=O)O[C@H]1C(=O)[C@@]2(C)[C@H]([C@H](OC(=O)c3ccccc3)[C@]3(O)C[C@H](OC(=O)[C@H](O)[C@@H](NC(=O)c4ccccc4)c4ccccc4)C(C)=C1C3(C)C)[C@]1(OC(C)=O)CO[C@@H]1C[C@@H]2O", "note": "[paclitaxel]", "values": [{"measurement": "physical form (XRPD)", "value": "crystal structure ordering"}]}
